Like-named read-outs stand apart in the source and are kept apart here.
Assays:
TNFα = assay: Cytokine response by ELISA, TNFα; format: cell-based, human; conditions: for effect on TNFα expression: LPS-stimulated THP-1, ELISA
Description: (§1) Dexamethasone is a synthetic glucocorticoid that suppresses LPS-induced pro-inflammatory cytokine expression and was used as a control (Abraham, Lawrence et al. 2006). Supernatants were collected for human cytokine ELISAs and the manufacturer's protocol was followed to assess the cytokine response. Cells remaining after the supernatant collection were tested for relative viability by Alamar Blue cytotoxicity assay as previously described.

[1] = system: PMA-differentiated THP-1 cells; assay: Alamar Blue cell viability assay, THP-1; format: cell-based, human; conditions: THP-1 cells, 4 h with LPS, mean ± SD
Description: THP-1 cells were maintained in RPMI 1640 medium supplemented with 10% heat-inactivated FBS and 1% penicillin/streptomycin (complete culture medium) at 37° C. with 5% CO2 supplemented. Cell concentrations were adjusted to desired concentrations for each experiment by centrifugation at 500×g for 5 min and resuspended in complete culture medium with 100 nM of PMA. Cell concentration was adjusted to 5×10^5 cells/ml for all assays with the exception of 2.5×10^5 cells/ml were used for NF-κB nuclear translocation assay. Cells were seeded onto 96-, 24-, or 12-well plates and incubated for 48 to 72 h to allow for differentiation. Cells were washed with serum-free RPMI 1640 medium before each experiment to remove undifferentiated cells. […] Cells were seeded into tissue culture plates at 10% confluence and grown to 80% confluence within 72 h. For live cell microscopy, 1×10^5 cells/ml were seeded into 35 mm glass-bottom (MatTek) dishes 24 h prior to imaging. For luciferase assays, 1.2×10^5 cells/well were seeded into 24-well tissue culture-treated plates.
Following treatment, the relative cell viability was measured by Alamar Blue assay. For Alamar Blue assays, supernatants were replaced with culture medium containing 1× Alamar Blue reagent and incubated overnight. Cell viability was assessed by measuring relative fluorescent units (RFU) on the SpectraMax M2e microplate reader (Molecular Devices Inc., Sunnyvale, Calif., USA) at Ex 560 nm and Em 590 nm. The results were expressed as a percentage relative to LPS alone control cells. The effects of the vehicle control, DMSO, on cell viability were also assessed.
as §1

[2] = system: rat skeletal muscle cell line, L6; assay: cells; format: cell-based; conditions: for IC50: Rattus norvegicus, Table 1, read-out: IC50 Toxicity (L6)
[3] = system: Trypanosoma brucei brucei 427 cells; assay: T. brucei culture and assay (PrestoBlue); format: cell-based; conditions: mean of 2(+) independent trials, read-out: IC50 T. brucei
[4] = system: Leishmania amazonensis promastigotes expressing beta-lactamase; assay: microbe, parasite or virus in culture; format: cell-based; conditions: for IC50: Leishmania amazonensis
[5] = system: Trypanosoma cruzi Tulahuen trypomastigotes; assay: T. cruzi extracellular assay (CellTiter Glo); format: cell-based; conditions: Trypanosoma cruzi, TULAHUEN
[6] = system: C. albicans (ATCC strain 90028); assay: Antifungal microdilution broth assay (PrestoBlue), C. albicans; format: cell-based, Candida albicans; conditions: Candida albicans, ATCC90028, across C. albicans, C. glabrata, and C. tropicalis; read-out: IC50 values against Candida species
Outline: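 Inoculum of 1.5×10^3 cells/mL in RPMI-MOPS (0.165 M MOPS, pH 7.0), exposed to aurones for 24 h at 35 °C. Growth read by PrestoBlue (10% final) fluorescence at ex 560/em 590 nm.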

[7] = system: Cryptococcus neoformans (Cn); assay: CLSI micro-dilution inhibition / MIC, Cryptococcus neoformans; format: cell-based
Description: C. neoformans (strain 1199s) was prepared following CLSI guidelines for the organism (CLSI, Reference Method for Broth Dilution Antifungal Susceptibility Testing of Yeasts, Approved Standard-Third. Edition, Clinical Laboratory Standards Institute, Wayne, Pa., 2008).
(§2) The A27-M2 CLSI standard micro-dilution method was used to screen an aurone library (MTSU Department of Chemistry) for inhibition of Cryptococcus neoformans (Cn). Each aurone was screened in triplicate. […] Toxicity assays were conducted on human THP1 macrophages and L6 rat fibroblasts.
(§3) The inhibition of Cn strains and C. gattii strains by Aurone 9051 (also referred to as “Aurone X”) was characterized in different medias (including RPMI 1640 (Standard), RPMI 1640+MOPS, Asparagine media, minimal media, or yeast extract peptone dextrose (YPD) media), against other serotypes and strains, and at different cell concentrations. Synergy of the compounds with current drugs was characterized, and a growth curve experiment was conducted.

C. gattii strains = assay: CLSI micro-dilution MIC, C. gattii strains; format: cell-based; conditions: Cryptococcus gattii
Description: as §2, §3

[8] = Homo sapiens, LPS-stimulated THP-1 cells, mean ± SD, read-out: Average % TNF-α Inhibition
[9] = LPS-stimulated THP-1 cells, 20 and 40 μM (one cell for all concentrations)
[10] = Table 1, ^b extracellular T. cruzi assay, read-out: IC50 T. cruzi
[11] = Table 2, extracellular assay, read-out: IC50 T. cruzi (footnote b: Extracellular T. cruzi assay)
[12] = LPS-stimulated THP-1 cells, 20 μM, mean ± SD

O=C1/C(=C/c2ccc(CO)o2)Oc2ccccc21 [Aurone 1]
inhibition at 40 µM (TNFα; [8]): 51.8 ± 13.5%
inhibition at 80 µM (TNFα; Homo sapiens, LPS-stimulated THP-1 cells, 80 μM, mean ± SD, read-out: Average % TNF-α Inhibition): 93.8 ± 0.7%

O=C1/C(=C/c2ccccc2O)Oc2ccccc21 [Aurone 4, (Z)-2-(2-hydroxybenzylidene)benzofuran-3(2H)-one]
inhibition at 40 µM (TNFα; [8]): 15.4 ± 5.3%

O=C1/C(=C/c2cccc(O)c2)Oc2ccccc21 [Aurone 5, (Z)-2-(3-hydroxybenzylidene)benzofuran-3(2H)-one]
Average % Viability (4 h with LPS) ([1]; 20 μM): 94.6 ± 1.2%
Average % Viability (4 h with LPS) ([1]; 25 μM): 92.9 ± 1.4%
Average % Viability (4 h with LPS) ([1]; 40 μM): 90.9 ± 0.6%
Average % TNF-α Inhibition (TNFα; LPS-stimulated THP-1 cells, 20, 25 and 40 μM (one cell for all concentrations)): No Inhibitions

O=C1/C(=C/c2ccc(O)cc2)Oc2ccccc21 [Aurone 6, (Z)-2-(4-hydroxybenzylidene)benzofuran-3(2H)-one]
Average % Viability (4 h with LPS) ([1]; 20 μM): 99.8 ± 1.5%
Average % Viability (4 h with LPS) ([1]; 40 μM): 98.5 ± 0.1%
Average % TNF-α Inhibition (TNFα; [9]): No Inhibitions

COc1cc(/C=C2\Oc3ccccc3C2=O)ccc1O [Aurone 7, (Z)-2-(4-hydroxy-3-methoxybenzylidene)benzofuran-3(2H)-one]
inhibition at 40 µM (TNFα; [8]): 10.4 ± 4.7%

COc1ccc(/C=C2\Oc3ccccc3C2=O)cc1O [Aurone 9, (Z)-2-(3-hydroxy-4-methoxybenzylidene)benzofuran-3(2H)-one]
inhibition at 40 µM (TNFα; [8]): 14.9 ± 7.2%

COc1cc(OC)c2c(c1)O/C(=C\c1ccc(C#N)cc1)C2=O [Aurone 7002, (Z)-4-((4,6-dimethoxy-3-oxobenzofuran-2(3H)-ylidene)methyl)benonitrile]
IC50 [2]: 82.5 µM
IC50 ([3]; Table 2): > 50 µM
IC50 ([3]; Trypanosoma brucei, Table 1): > 50 µM
melting point: 220 to 223 °C
IC50 ([4]; read-out: IC50 L. amaz.): 2.08 µM
IC50 ([4]; read-out: IC50 L. amaz. (footnote c: value obtained from one trial)): 2.08 µM
Selectivity L6/La ([4]; Table 1): 39.68
Selectivity L6/La ([4]; Table 2, L6 IC50 / L. amazonensis IC50): 39.68
IC50 [5, 10]: > 50 µM
IC50 [5, 11]: > 50 µM

O=C1/C(=C/c2ccccn2)Oc2ccccc21 [Aurone 9051]
IC50 [6]: 10 to 18 µM
MIC ([7]; 10^3 cells, read-out: MIC, Cn): 25 µg/mL
MIC ([7]; 10^4 cells, read-out: MIC, Cn): 50 µg/mL
MIC ([7]; 10^5 cells, read-out: MIC, Cn): 100 µg/mL
MIC ([7]; C. neoformans 24067 (lab), serotype D, RPMI + MOPS, inoculum 2 × 10^3 CFU/ml): 112 µM
MIC ([7]; C. neoformans B18 (clinical), serotype A, RPMI + MOPS, inoculum 2 × 10^3 CFU/ml): 112 µM
MIC ([7]; C. neoformans B45 (clinical), serotype A, RPMI + MOPS, inoculum 2 × 10^3 CFU/ml): 112 µM
MIC ([7]; C. neoformans B58 (clinical), serotype A, RPMI + MOPS, inoculum 2 × 10^3 CFU/ml, read-out: MIC): 56 µM
MIC ([7]; C. neoformans B3501 (lab), serotype D, RPMI + MOPS, inoculum 2 × 10^3 CFU/ml): 112 µM
MIC ([7]; C. neoformans H99S, serotype A, Asparagine media, inoculum 2 × 10^3 CFU/ml): 112 µM
MIC ([7]; C. neoformans H99S, serotype A, Minimal media, inoculum 2 × 10^3 CFU/ml): > 4480 µM
MIC ([7]; C. neoformans H99S, serotype A, RPMI + MOPS, inoculum 2 × 10^3 CFU/ml): 112 µM
MIC ([7]; C. neoformans H99S, serotype A, RPMI + MOPS, inoculum 2 × 10^4 CFU/ml): 224 µM
MIC ([7]; C. neoformans H99S, serotype A, RPMI + MOPS, inoculum 2 × 10^5 CFU/ml): 448 µM
MIC ([7]; C. neoformans H99S, serotype A, YPD media, inoculum 2 × 10^3 CFU/ml): > 896 µM
MIC ([7]; C. neoformans JEC21 (lab), serotype D, RPMI + MOPS, inoculum 2 × 10^3 CFU/ml): 112 µM
MIC ([7]; in RPMI+MOPS, read-out: MIC, Cn): 12.5 µg/mL
MIC ([7]; in YPD, read-out: MIC, Cn): > 200 µg/mL
MIC ([7]; in asparagine media, read-out: MIC, Cn): 25 µg/mL
MIC ([7]; running text b175, read-out: MIC against Cryptococcus neoformans): 110 µM
MIC (C. gattii strains; read-out: MIC, C. gattii strain R265): 25 µg/mL
MIC (C. gattii strains; read-out: MIC, C. gattii strain R272): 25 µg/mL
toxicity to L6 rat fibroblasts ([2]; rat, 71.5 h): > 100 µM

Cc1cccc(/C=C2\Oc3ccccc3C2=O)c1 [Aurone 9064, (Z)-2-(3-methylbenzylidene)benzofuran-3(2H)-one]
IC50 [2]: 79.9 µM
IC50 ([3]; Trypanosoma brucei, Table 1): 32.6 µM
melting point: 74 to 75 °C
IC50 ([4]; read-out: IC50 L. amaz.): 4.4 µM
IC50 [5, 10]: 18.4 µM
IC50 [5, 11]: 18.4 µM

O=C1/C(=C/c2ccccc2O)Oc2ccccc21 [aurone 4, (Z)-2-(2-hydroxybenzylidene)benzofuran-3(2H)-one]
Average % Viability (4 h with LPS) ([1]; 20 μM): 99.4 ± 0.5%
effect on TNFα expression (TNFα): low activity
Average % TNF-α Inhibition (TNFα; [12]): No Inhibition

COc1cc(/C=C2\Oc3ccccc3C2=O)ccc1O [aurone 7, (Z)-2-(4-hydroxy-3-methoxybenzylidene)benzofuran-3(2H)-one]
Average % Viability (4 h with LPS) ([1]; 20 μM): 97.0 ± 0.3%
effect on TNFα expression (TNFα): weaker activity
Average % TNF-α Inhibition (TNFα; [12]): No Inhibition

COc1cccc(/C=C2\Oc3ccccc3C2=O)c1O [aurone 8, (Z)-2-(2-hydroxy-3-methoxybenzylidene)benzofuran-3(2H)-one]
Average % Viability (4 h with LPS) ([1]; 20 μM): 101.3 ± 2.6%
effect on TNFα expression (TNFα): lack of activity
Average % TNF-α Inhibition (TNFα; [9]): No Inhibitions

COc1ccc(/C=C2\Oc3ccccc3C2=O)cc1O [aurone 9, (Z)-2-(3-hydroxy-4-methoxybenzylidene)benzofuran-3(2H)-one]
melting point: 186 to 187 °C
Average % Viability (4 h with LPS) ([1]; 20 μM): 101.8 ± 2.1%
effect on TNFα expression (TNFα): weaker activity
Average % TNF-α Inhibition (TNFα; [12]): No Inhibition

Cc1ccc(/C=C2\Oc3ccccc3C2=O)o1 [compound 2]
Average % Viability (4 h with LPS) ([1]; 25 μM): 99.4 ± 9.3%
Average % Viability (4 h with LPS) ([1]; 50 μM): 118.3 ± 1.3%
Average % Viability (4 h with LPS) ([1]; 100 μM): 108.9 ± 2.0%
effect on TNFα expression (TNFα): complete loss of activity
Average % TNF-α Inhibition (TNFα; LPS-stimulated THP-1 cells, 25, 50 and 100 μM (one cell for all concentrations)): No Inhibitions

O=C1/C(=C/c2ccco2)Oc2ccccc21 [compound 3]
Average % Viability (4 h with LPS) ([1]; 12.5 μM): 104.3 ± 2.2%
Average % Viability (4 h with LPS) ([1]; 25 μM): 102.1 ± 0.8%
Average % Viability (4 h with LPS) ([1]; 50 μM): 92.2 ± 0.9%
effect on TNFα expression (TNFα): complete loss of activity
Average % TNF-α Inhibition (TNFα; LPS-stimulated THP-1 cells, 12.5, 25 and 50 μM (one cell for all concentrations)): No Inhibitions

Reference: patent US20200399238A1, “THERAPEUTIC AURONES” (MIDDLE TENNESSEE STATE UNIVERSITY, priority 2016, published 2020)
